From US12258377B2 (Scancell Limited, priority 2012, dated 2025)
Square brackets hold non-standard residues; d marks the D form. Ends that are not written are not given here. Cit = NC(=O)NCCC[C@H](N)C(=O)O

Legend:
[1] = tested on: splenocytes; assay: Ex vivo elispot assay on splenocytes of immunised HLA-DR1 / HLA-A2/DR1 (HHDII/DR1) transgenic mice; assay type: in vivo
Experimental: (§1) C57BL/6 mice (Charles River, UK), HLA-DR4 mice (Taconic, USA), HHDII mice (Pasteur institute, France) and HHDII/DRI mice (Pasteur institute, France) were used, aged between 8 and 12 weeks, and cared for by the staff at Nottingham Trent University. All work was carried out under a Home Office project license. Peptides were dissolved in 10% Dimethylformamide to 1 mg/ml and then emulsified (a series of dilutions) with different adjuvants: CpG and MPLA 6 μg/mouse of each (Invivogen, UK), Incomplete Freund's […] (Sigma, UK), and GMCSF 10 μg/mouse (Peprotech, UK). Peptides (25 μg/mouse) were injected subcutaneously at the base of the tail. DNA (1 μg/mouse) was coated onto 1.0 μm gold particles (BioRad, Hemel Hempstead, UK) using the manufacturer's instructions and administered intradermally by genegun (BioRad). Homspera (10 nM/mouse) (PeptideSynthetics, UK) was injected intradermally with genegun immunisation. Mice were immunized at either day 0 for peptide immunisation or days, 0, 7, and 14 for peptide and genegun immunisation. Spleens were removed for analysis at day 14 for peptide and day 20 for peptide or genegun immunisation unless stated otherwise. 400 μg Anti-CD25 antibody (PC61) was administered i.p. in saline 3 days prior to the immunisation. 200 μg Anti-CTLA-4 antibody (UC 10-4F, 10-11) was administered i.p. in saline at day 7 and 14 with either genegun or peptide immunisation.
(§2) Elispot assays were performed using murine IFNγ, IL-17 and IL-10 capture and detection reagents according to the manufacturer's instructions (Mabtech, Sweden). In brief, anti-IFNγ, IL-17 and IL-10 antibodies were coated onto wells of 96-well Immobilin-P plate. Synthetic peptides (at a variety of concentrations) and 5×10^5 per well splenocytes were added to the wells of the plate in triplicate. Tumour target cells were added where relevant at 5×10^4/well in triplicate and plates incubated for 40 hrs at 37° C. After incubation, captured IFNγ, […], IL-17 and IL-10 were detected by biotinylated anti-IFNγ, IL-17 and IL-10 antibodies and developed with a strepatavidin alkaline phosphatase and chromogenic substrate. Spots were analysed and counted using an automated plate reader (Cellular Technologies Ltd). Functional avidity was calculated as the concentration mediating 50% maximal effector function using a graph of effector function versus peptide concentration.

[2] = tested on: splenocytes; assay: Ex vivo elispot assay on splenocytes of immunised C57B1 mice; assay type: in vivo, C57BL/6 mice; details: combination of 3 citrullinated peptides (3×10 μg) with CpG and MPLA; day 14; C57B1/6 mice
Experimental: as §1, §2

[3] = tested on: splenocytes; assay: Ex vivo elispot assay on splenocytes of immunised HLA-DR4 transgenic mice; assay type: in vivo; details: for IFNg elispot response to citrullinated peptide over unmodified peptide or background control: citrullinated peptides 25 ug s.c. in CpG and MPLA, FIG. 34; for IL-10 elispot responses: against wild type and citrullinated peptides; for IFNγ elispot response to wild type peptide, mean / IFNγ elispot response to citrullinated peptide, mean: day 14 splenocytes; for IFNγ elispot response against vimentin 28-49 triple, double and single citrullinated peptides: peptide immunisation, FIG. 11
Experimental: as §1, §2

[4] = tested on: PBMC; assay: Proliferation assay of PBMC from cancer patients; assay type: cell-based, human; details: PBMC stimulated with 10 μg/ml peptide for 4, 7 and 11 days, 3H-thymidine
Experimental: PBMC were isolated from freshly drawn heparinised blood by Ficol-Hypaque (Sigma) gradient centrifugation. PBMC (1.5×10^6 cells/well) were stimulated with single peptides (final concentration 10 μg/ml) in RPMI containing 5% pooled autologous human serum, 2 mM glutamine, 20 mM HEPES and Penicillin-streptomycin (1%) in a final volume of 2 ml. Stimulation with purified protein derivative, PPD (final concentration 10 μg/ml) served as a positive control for the proliferative capacity of PBMC. As a negative control PBMC were incubated with medium alone. The PBMC were cultured at 37° C. in an atmosphere of 5% CO2 for 4, 7 and 11 days. To assess proliferation at these times points 100 μl in triplicate from each culture was aliquoted into a round bottom well of a 96 well plate and ^3H-thymidine added (0.0185 MBq/well) and incubated at 37° C. for a further 8 hours. The cultures were harvested onto unifilter plates and incorporation of ^3H-thymidine was determined by β-scintillation counting. The results were assessed by calculating the stimulation index (SI) as the ratio of the mean of counts per minute (cpm) of epitope-stimulated to the mean of unstimulated cultures. The proliferative assay was considered positive when SI >2.5.

[5] = tested on: splenocytes; assay: Ex vivo elispot assay on splenocytes of immunised HLA-DR1 / HLA-A2/DR1 (HHDII/DR1) transgenic mice; assay type: in vivo; details: combination of 3 citrullinated peptides (3×10 μg) with CpG and MPLA; day 14; HLA-DR1 transgenic mice
[6] = tested on: B16F1-DR4 cells; assay: Tumour challenge with B16F1-DR4 cells; assay type: in vivo, HLA-DR4 transgenic mice; details: peptide 25 μg in CpG and MPLA s.c. or DNA via gene gun, days 4, 11, 18; versus unimmunised control
Experimental: For tumour challenge experiments mice were challenged with 2.5×10^4 B16 HHDII NYESO/TAP2 siβ2m 1F10 cells or B16 DR4 2E7 cells subcutaneously on the right flank 3 days prior to primary immunisation and then were immunised as above. Anti-IFNγ antibody (300 μg/dose), anti-IL-17 antibody (200 μg/dose) and anti-HLA-DR antibody (300 μg/dose) were administered i.p. in saline at days 2, 7, 11 and 14 post tumour implant. Anti-CD4 antibody (500 μg/dose) was administered i.p.in saline at days 2 and 8 post tumour implant. Tumour growth was monitored at 3-4 days intervals and mice were humanely euthanized once tumour reached ≥10 mm in diameter.

[7] = 25 μg in MPLA and CPG s.c. days 0, 7, 14, HLA-DR1 transgenic mice
[8] = 25 μg peptide with CpG and MPLA day 0, day 14
[9] = 25 μg peptide with CpG and MPLA day 0, day 14, peptide 5 μM
[10] = 25 μg peptide with CpG and MPLA day 0, peptide 5 μM
[11] = 25 μg peptide with CpG and MPLA day 0, day 14, recall peptide not specified

AQKKLKLVRTSPEYGMP
immune response after immunisation ([1]; HLA-DR1 transgenic mice): failed to stimulate any immune response

AQKKLKLVcitTSPEYGMP (AQKKLKLV[Cit]TSPEYGMP)
IFNγ/IL-17 response to the citrullinated peptide, mean [1, 7]: 200 spots/million splenocytes | IFNγ/IL-17 response to the wild type peptide [1, 7]: no response | response in presence of MHC class II blocking mab ([1]; IFNγ elispot, HLA-A2/DR1 mice): blocked

EAENTLQSFRQDVDNASLA [Vimentin 20]
IL-17 response, screening of citrullinated 20 mer peptides [2]: ~400 spots/million splenocytes

EKLQEEMLQREEAENTLQS [Vimentin 19]
IL-17 response, screening of citrullinated 20 mer peptides [2]: ~400 spots/million splenocytes

KLATEYMSSARSLSSEEK [ING4 44-58]
IFNg elispot response to citrullinated peptide over unmodified peptide or background control [3]: significant responses

LPNFSSLNLRETNLDSLPL [wild type vim 415-433 peptide]
IL-10 response, mean ([3]; 25 μg peptide in MPLA and CPG s.c., day 14, FIG. 30): 580 spots/million splenocytes | IL-10 elispot responses [3, 8]: No significant IL-10 responses | IL-2 elispot response to citrullinated peptide, mean [3, 9]: weak | IL-17 elispot response to wild type peptide, mean [3, 9]: failed to stimulate a significant IFNγ or IL-17 response | IFNγ elispot response to wild type peptide, mean [3, 10]: failed to stimulate a significant IFNγ or IL-17 response | patients showing a proliferative response (SI >2.5) [4]: 8/11 | patients showing a proliferative response (SI >2.5) ([4]; listed as unmodified vim 415): Six of eleven

RAPFDLFENRKKKNN [HSP90 346-360]
IFNg elispot response to citrullinated peptide over unmodified peptide or background control [3]: significant responses

RKKLSELLRYYTSASGDEMVSL [HSP90 456-477]
IFNg elispot response to citrullinated peptide over unmodified peptide or background control [3]: significant responses

RLRSSVPGVRLLQDSVDFS [Vimentin 10]
IL-17 response, screening of citrullinated 20 mer peptides [5]: 350 spots/million splenocytes

RSYVTTSTRTYSLGSALRPSTS [wild type vim 28-49]
IL-10 elispot responses [3, 8]: No significant IL-10 responses | IL-2 elispot responses [3, 11]: weak | IL-17 elispot responses [3, 11]: weak | IFNγ elispot response to citrullinated peptide, mean [3, 10]: 1,100 /million splenocytes | IFNγ elispot response to wild type peptide, mean [3, 10]: 700 /million splenocytes | patients showing a proliferative response (SI >2.5) [4]: Two of eight | patients showing a proliferative response (SI >2.5) ([4]; listed as Wild type vim 28-49 peptide): 2/11 | anti-tumour response / survival [6]: anti-tumour response that almost reached significance

SAVRLRSSVPGVR [wild type vim 65-77 peptide]
IL-17 elispot response to citrullinated peptide, mean [3, 9]: weak | IL-17 elispot response to wild type peptide, mean [3, 9]: weak | IFNγ elispot response to citrullinated peptide, mean [3, 10]: weak | IFNγ elispot response to wild type peptide, mean [3, 10]: weak | patients showing a proliferative response (SI >2.5) ([4]; listed as vim 65): Four out of eight | patients showing a proliferative response (SI >2.5) ([4]; listed as vim 65-77): 4/9

VPAYFNDAQRQATKDA [BiP 172-186]
IFNg elispot response to citrullinated peptide over unmodified peptide or background control [3]: significant responses

Vim 28-49 only citrullinated at position 28: vimentin 28-49 peptide with citrulline only at position 28 ([Cit]SYVTTSTRTYSLGSALRPSTS; UniProt P08670 28-49, looked up, fragment)
IFNγ elispot response against vimentin 28-49 triple, double and single citrullinated peptides [3]: gave a response to the tri-citrullinated peptide and the Vim 45 citrullinated peptide

YSCVGVFKNGRVEII [BiP 39-53]
IFNg elispot response to citrullinated peptide over unmodified peptide or background control [3]: significant responses

mouse vim 415 cit: murine vimentin 415-433 citrullinated peptide (LPTFSSLNL[Cit]ETNLESLPL; UniProt P20152 415-433, looked up, fragment)
influence of natural Treg depletion (anti-CD25 mAb) on the response ([3]; 25 μg peptide day 0, PC61 three days before, IFNγ elispot day 14): no influence on the frequency or the avidity of the response

vim 28 and 36 citrullinated peptide: vimentin 28-49 peptide citrullinated at positions 28 and 36 ([Cit]SYVTTST[Cit]TYSLGSALRPSTS; UniProt P08670 28-49, looked up, fragment)
IFNγ elispot response against vimentin 28-49 triple, double and single citrullinated peptides [3]: responded to the triple
